# Activity calls are given as the source filed them. The calls are words filed in the database; no cut-off is given here.
# Legend:
# Blood [1] = assay: Anticoagulant activity in human whole blood assessed as amplitude of the clot at 10 mins at 3.12 x 10^-4 M by thromboelastography analysis in presence of intrinsic activator (reference value: 57 mm); format: functional
# Mus musculus [2] = assay: Anticoagulant activity in ip dosed mouse assessed as increase of prothrombin time; format: functional, organism-based
# [3] = Chemical stability of the compound in aqueous solution at 1.00 x 10^-2, 1.00 x 10^-4 and 1.00 x 10^-6 M at 4 degC after 15 days by HPLC analysis; conditions: buffer, 360 h, 10 mM, 100 µM, 1 µM
# [4] = Solubility of the compound in water; format: physicochemical; conditions: buffer
# [5] = Chemical stability of the compound in sodium boric acid at pH 9.1 assessed as compound remaining at 1 x 10^-5 M after 120 mins by HPLC analysis; format: physicochemical; conditions: sodium boric acid buffer, read-out: Stability
# Plasma [6] = assay: Anticoagulant activity in human plasma assessed as concentration required to double the prothrombin time by coagulometer analysis; format: functional
# [7] = Chemical stability of the compound in aqueous solution at 1.00 x 10^-2, 1.00 x 10^-4 and 1.00 x 10^-6 M at room temperature after 15 days by HPLC analysis; conditions: buffer, 360 h, 10 mM, 100 µM, 1 µM
# Plasma [8] = assay: Anticoagulant activity in human plasma assessed as effect on activated partial thromboplastin time by coagulometer analysis; format: functional, cell-free
# [9] = Chemical stability of the compound in phosphate buffered saline at pH 7.4 assessed as compound remaining at 1 x 10^-5 M after 120 mins by HPLC analysis; format: physicochemical; conditions: read-out: Stability
# Mus musculus [10] = assay: Anticoagulant activity in mouse assessed as increase of activated prothrombin time at 300 umol/kg, po; format: functional, organism-based
# Mus musculus [11] = assay: Anticoagulant activity in ip dosed mouse assessed as increase of thrombin time; format: functional, organism-based
# Coagulation factor X [12] = target: T1, Coagulation factor X (Homo sapiens, UniProt P00742); assay: Inhibition of human factor 10a assessed as CBS 31.39 substrate hydrolysis by spectrophotometric analysis
# Plasma [13] = assay: Metabolic stability in human plasma after 3 hrs by HPLC analysis by HPLC analysis; format: ADME, cell-free
# [14] = target: Vitamin K-dependent protein C (Homo sapiens) (UniProt P04070); assay: Inhibition of activated protein C in citreated human plasma using CBS 42.46 as substrate at 2 x 10^-3 M by chromogenic assay
# Blood [15] = assay: Anticoagulant activity in human whole blood assessed as time from beginning of clot formation until the amplitude of thromboelastogram reaches 20 mm at 3.12 x 10^-4 M by thromboelastography analysis in presence of intrinsic activator (reference value: 82 sec); format: functional
# [16] = Chemical stability of the compound in HCl buffer at pH 1 assessed as compound remaining at 1 x 10^-5 M after 120 mins by HPLC analysis; format: physicochemical; conditions: read-out: Stability
# [17] = target: Prothrombin (Homo sapiens) (UniProt P00734); assay: Inhibition of human thrombin assessed as chromozym TH substrate hydrolysis at 1.9 x 10^-9 by spectrophotometric analysis
# [18] = target: Vitamin K-dependent protein C (Homo sapiens) (UniProt P04070); assay: Inhibition of activated protein C in citreated human plasma using CBS 42.46 as substrate at 2.50 x 10^-4 M by chromogenic assay
# Coagulation factor X [19] = target: T1, Coagulation factor X; assay: Inhibition of human factor 10a assessed as CBS 31.39 substrate hydrolysis at 1 x 10^-3 M by spectrophotometric analysis
# Mus musculus [20] = assay: Anticoagulant activity in mouse assessed as increase of activated thrombin time at 300 umol/kg, po; format: functional, organism-based
# Coagulation factor X [21] = target: T1, Coagulation factor X; assay: Non-competitive inhibition of human factor 10a using CBS 31.39 as substrate hydrolysis by Michaelis-Menten equation analysis
# [22] = target: Prothrombin (Homo sapiens) (UniProt P00734); assay: Inhibition of human thrombin assessed as chromozym TH substrate hydrolysis at 1 x 10^-4 to 1 x 10^-3 M by spectrophotometric analysis in presence of antithrombin-3
# Blood [23] = assay: Anticoagulant activity in human whole blood assessed as acceleration/kinetics of fibrin buildup and cross-linking at 3.12 x 10^-4 M by thromboelastography analysis in presence of intrinsic activator (reference value: 77 degree); format: functional
# [24] = Chemical stability of the compound in potassium phosphate buffer at pH 6.7 assessed as compound remaining at 1 x 10^-5 M after 120 mins by HPLC analysis; format: physicochemical; conditions: read-out: Stability
# Mus musculus [25] = assay: Hepatotoxicity in mouse assessed as GOT level in plasma at 300 umol/kg, ip after 120 mins (reference value: 108 U/L); format: toxicity, organism-based; conditions: in vivo, 2 h
# Mus musculus [26] = assay: Anticoagulant activity in ip dosed mouse assessed as increase of activated partial thromboplastin time; format: functional, organism-based
# Plasma [27] = assay: Anticoagulant activity in human plasma assessed as effect on thrombin time by coagulometer analysis; format: functional, cell-free
# Mus musculus [28] = assay: Hepatotoxicity in mouse assessed as GPT level in plasma at 300 umol/kg, ip after 120 mins (reference value: 40 U/L); format: toxicity, organism-based; conditions: in vivo, 2 h
# Mus musculus [29] = assay: Anticoagulant activity in mouse assessed as increase of thrombin time at 150 and 300 umol/kg, ip measured after 120 mins; format: functional, organism-based
# Plasma [30] = assay: Reduction of prothrombin level in citreated human plasma by measuring prothrombin clotting time after mixing with factor 2 deficient plasma
# [31] = target: Coagulation factor X/antithrombin III (Homo sapiens) (UniProt P01008+P00742); assay: Inhibition of human factor 10a/antithrombin 3 assessed as CBS 31.39 substrate hydrolysis at 1 x 10^-3 M by spectrophotometric analysis; format: protein-complex assay
# Mus musculus [32] = assay: Anticoagulant activity in mouse assessed as increase of activated partial thromboplastin time at 150 and 300 umol/kg, ip measured after 120 mins; format: functional, organism-based
# Plasma [33] = assay: Anticoagulant activity in human plasma assessed as concentration required to double the thrombin time by coagulometer analysis; format: functional
# Mus musculus [34] = assay: Anticoagulant activity in mouse assessed as increase of prothrombin time at 150 and 300 umol/kg, ip measured after 120 mins; format: functional, organism-based
# [35] = Chemical stability of the compound in aqueous solution at 1.00 x 10^-2, 1.00 x 10^-4 and 1.00 x 10^-6 M at -20 degC after 15 days by HPLC analysis; conditions: buffer, 360 h, 10 mM, 100 µM, 1 µM
# Plasma [36] = assay: Anticoagulant activity in human plasma assessed as concentration required to double the activated partial thromboplastin time by coagulometer analysis; format: functional
# Mus musculus [37] = assay: Anticoagulant activity in mouse assessed as increase of activated partial thromboplastin time at 300 umol/kg, po; format: functional, organism-based
# Blood [38] = assay: Anticoagulant activity in human whole blood assessed as period of time from initiation of the test to the initial fibrin formation at 3.12 x 10^-4 M by thromboelastography analysis in presence of intrinsic activator (reference value: 188 sec); format: functional
# Plasma [39] = assay: Anticoagulant activity in human plasma assessed as effect on prothrombin time by coagulometer analysis; format: functional, cell-free
# [40] = Chemical stability of the compound in sodium acetate buffer at pH 5 assessed as compound remaining at 1 x 10^-5 M after 120 mins by HPLC analysis; format: physicochemical; conditions: read-out: Stability
# [41] = Stability in RPMI medium at 37 degC assessed as compound degradation incubated for 24 hrs; format: physicochemical
# Plasma [42] = assay: Anticoagulant activity in human plasma assessed as effect on prothrombin time at 5 mM by coagulometer analysis relative to untreated control; format: functional
# Plasma [43] = assay: Anticoagulant activity in human plasma assessed as effect on activated partial thromboplastin time at 5 mM by coagulometer analysis relative to untreated control; format: functional
# Plasma [44] = assay: Anticoagulant activity in human plasma assessed as effect on thrombin time at 5 x 10^-3 M by coagulometer analysis; format: functional, cell-free
# [45] = target: Coagulation factor X/antithrombin III (Homo sapiens, UniProt P00742+P01008); assay: Inhibition of human factor 10a/antithrombin 3 assessed as CBS 31.39 substrate hydrolysis by spectrophotometric analysis; format: protein-complex assay
smiles,measurement,setting,value
O=c1c2cc(OS(=O)(=O)O)c(OS(=O)(=O)O)cc2oc2cc(OS(=O)(=O)O)c([C@@H]3O[C@H](COS(=O)(=O)O)[C@@H](OS(=O)(=O)O)[C@H](OS(=O)(=O)O)[C@H]3OS(=O)(=O)O)c(O)c12 [MANGIFERIN HEPTASULFATE],Activity,Blood [1],50 mm
same,Activity,Mus musculus [2],Dose-dependent effect
same,Stability,[3],Stable
same,solubility,[4],soluble
same,"remaining at 2 h, 10 µM",[5],> 85%
same,2PT,Plasma [6],1.6 mM
same,Stability,[7],Stable
same,Activity,Plasma [8],Dose-dependent effect
same,"remaining at 2 h, 10 µM",[9],> 85%
same,Activity,Mus musculus [10],inactive
same,Activity,Mus musculus [11],Dose-dependent effect
same,IC50,Coagulation factor X [12],970 µM
same,Stability,Plasma [13],Stable
same,inhibition,[14],> 50%
same,Time,Blood [15],86 s
same,"remaining at 2 h, 10 µM",[16],> 85%
same,inhibition,[17],37%
same,inhibition,[18],inactive
same,inhibition,Coagulation factor X [19],52.1%
same,Activity,Mus musculus [20],inactive
same,inhibition,Coagulation factor X [21],Active
same,inhibition,[22],inactive
same,Activity,Blood [23],73 degree
same,"remaining at 2 h, 10 µM",[24],> 85%
same,Activity,Mus musculus [25],125 U/L
same,Activity,Mus musculus [26],Dose-dependent effect
same,Activity,Plasma [27],Dose-dependent effect
same,Activity,Mus musculus [28],46 U/L
same,Activity,Mus musculus [29],Active
same,Activity,Plasma [30],Active
same,inhibition,[31],41%
same,Activity,Mus musculus [32],Active
same,Activity,Plasma [33],1.96 mM
same,Activity,Mus musculus [34],Active
same,Stability,[35],Stable
same,2aPTT,Plasma [36],0.21 mM
same,Activity,Mus musculus [37],inactive
same,Time,Blood [38],247 s
same,Activity,Plasma [39],Dose-dependent effect
same,"remaining at 2 h, 10 µM",[40],> 85%
Oc1ccc(/C=C/c2cc(O)cc(O)c2)cc1 [RESVERATROL],degraded at 24 h,"[41]; RPMI medium, read-out: Drug degradation",50%
O=c1c2cc(O)c(O)cc2oc2cc(O)c([C@@H]3O[C@H](COS(=O)(=O)O)[C@@H](OS(=O)(=O)O)[C@H](OS(=O)(=O)O)[C@H]3OS(=O)(=O)O)c(O)c12,Activity,Plasma [8],Dose-dependent effect
same,Activity,Plasma [27],Dose-dependent effect
same,2aPTT,Plasma [36],0.39 mM
same,Activity,Plasma [39],Dose-dependent effect
O=c1c2ccc(O[C@@H]3O[C@H](CO)[C@@H](O)[C@H](O)[C@H]3O)cc2oc2cc(O[C@@H]3O[C@H](CO)[C@@H](O)[C@H](O)[C@H]3O)ccc12,Activity,Plasma [42],inactive
same,Activity,Plasma [43],inactive
same,Activity,Plasma [44],inactive
O=c1c2cc(O)c(O)cc2oc2cc(O)c([C@@H]3O[C@H](CO)[C@@H](O)[C@H](O)[C@H]3O)c(O)c12,Activity,Plasma [42],inactive
same,Activity,Plasma [43],inactive
same,Activity,Plasma [44],inactive
O=c1c2ccc(O[C@@H]3O[C@H](COS(=O)(=O)O)[C@@H](OS(=O)(=O)O)[C@H](OS(=O)(=O)O)[C@H]3OS(=O)(=O)O)cc2oc2cc(O[C@@H]3O[C@H](COS(=O)(=O)O)[C@@H](OS(=O)(=O)O)[C@H](OS(=O)(=O)O)[C@H]3OS(=O)(=O)O)ccc12,Activity,Blood [1],51 mm
same,2PT,Plasma [6],0.71 mM
same,Activity,Plasma [8],Dose-dependent effect
same,IC50,Coagulation factor X [12],740 µM
same,inhibition,[14],> 50%
same,Time,Blood [15],114 s
same,inhibition,[17],37%
same,inhibition,[18],inactive
same,inhibition,Coagulation factor X [19],66.3%
same,inhibition,[22],inactive
same,Activity,Blood [23],68 degree
same,Activity,Plasma [27],Dose-dependent effect
same,Activity,Plasma [30],Active
same,inhibition,[31],88.8%
same,Activity,Plasma [33],0.61 mM
same,2aPTT,Plasma [36],0.06 mM
same,Time,Blood [38],469 s
same,IC50,[45],190 µM
same,Activity,Plasma [39],Dose-dependent effect
O=c1c2ccc(OS(=O)(=O)O)cc2oc2cc(OS(=O)(=O)O)ccc12,2PT,Plasma [6],>5 mM
same,fold change (FC),Plasma [42],1.1
same,fold change (FC),Plasma [43],1.3
same,Activity,Plasma [44],inactive
same,2aPTT,Plasma [36],>5 mM
O=S(=O)(O)Oc1ccc(/C=C/c2cc(O)cc(O)c2)cc1,Stability,[41]; 24 h,Stable

# Reference: ChEMBL document CHEMBL2157951, “Polysulfated xanthones: multipathway development of a new generation of dual anticoagulant/antiplatelet agents” (J Med Chem, 2011)
